From US20140303109A1 (priority 2010, published 2014)
Like-named read-outs stand apart in the source and are kept apart here. One block for each molecule: values may come before it.

Columns and labels:
[1] = system: human colon cancer HCT 116 cells; experiment: MTT assay, HCT 116 cell growth; assay type: cell-based; settings: read-out: inhibition on cell proliferation
Experimental: (§1) The concentrations were 10 μM, 20 μM, and 30 μM. After aspiration of growth medium, (3-(4,5-Dimethylthiazol-2-yl)-2,5-diphenyltetrazolium bromide (MTT; 1 mg/ml) was added to the cell cultures, followed by incubation for 3 hours at 37° C. After the cells were crystallized, the MTT was removed and dimethylsulfoxide (DMSO) was added to dissolve the metabolized MTT product. The absorbance was then measured on a Wallac Victor^3 1420 Multi-label counter at 540 nm.

[2] = system: BxPC-3 pancreatic cancer cells; experiment: MTT assay, BxPC-3 cell growth, 72 h; assay type: cell-based, human; settings: various concentrations
Experimental: as §1
The results are shown on FIG. 5 which is a series of four bar graphs, labeled FIG. 5A through FIG. 5D.

[3] = Serum pharmacokinetics after single intragastric dose; assay type: in vivo, mice
Experimental: The mice were randomly divided into two groups of 18 mice apiece. […] Blood and tissue samples were harvested before initiation of treatment (0 hr) and at 1, 2, 4, 6, 8, 12, 16, and 24 hrs following the intragastric administration. At each time point, two mice were euthanized and ˜200 μL blood was collected by cardiac puncture, and tissues (liver, lung, kidney, heart, pancreas, and colon) were harvested, washed free of blood with PBS, blotted dry, weighed, and stored at −80° C. until analysis. The collected blood samples were allowed to clot, centrifuged, and then the serum was separated and stored at −80° C. until analysis.
The tissue samples were homogenized in 5 volumes of ice-cold normal saline. Aliquots of serum or tissue homogenate were spiked with ethyl acetate (containing 50 ng/ml zilueton as an internal standard) as follows: 100 μL serum/500 μL ethyl acetate and 500 μL tissue homogenate/1 ml ethyl acetate. The mixtures were vortex-mixed and centrifuged at 14,000 rpm for 5 minutes. The top layer was separated and dried under a stream of nitrogen in a water bath at about 50° C. The residue was reconstituted in 100 μL of methanol/water containing 0.45% formic acid (70:30 v/v) and then centrifuged again.
The supernatant (100 μL) was injected into the HPLC equipment, and separated on a Waters Xterra MS column (2.1×50 mm, […] i.d.) With a mobile phase consisting of methanol/water containing 0.45% formic acid (70:30 v/v) at a flow rate of 0.2 ml/min. The column effluent was monitored using a Waters Quattro Micro™ triple quadrapole mass-spectrometric detector equipped with an electrospray ionization source. (Waters Corporation, Milford, Mass.). […] The internal standard zilueton was monitored in the positive mode at the transition of m/z, 237.1→160.8. […] The within-day and between-day precision and accuracies of the assay was <15%.
Serum pharmacokinetic parameters were estimated using non-compartmental analysis with WinNonlin software version 4.2 (Pharsight Corporation, Cary, N.C.). The maximum serum concentration (Cmax) and the time of occurrence for maximum concentration (Tmax) were obtained by visual inspection of the serum concentration-time curve after drug administration. The total area under the serum concentration-time curve from time zero to the last measurable time point ([…]) was calculated using the linear and logarithmic trapezoidal method for ascending and descending serum concentrations, respectively.

[4] = system: BxPC-3 cells; experiment: MTT cell viability, BxPC-3 (gemcitabine-sensitive); assay type: cell-based, human; settings: 0.1-4.0 μMol/L
Experimental: Cell growth was assessed by an MTT assay in a manner similar to that as described above. The color intensity was measured by a TECAN microplate fluorometer (Tecan Group, LTD, Research Triangle Park, N.C.) at 595 nm.

[5] = system: miR-21; experiment: Real-time RT-PCR of miR-21 in PC cell lines; assay type: cell-based, human; settings: 72 h; BxPC-3, MIAPaCa-E, MIAPaCa-M
Experimental: The expression of miRNAs (miRNA-200a, miR-200b, and miR-21) in all three pancreatic cancer cell lines, was measured with a TaqMan MicroRNA Assay kit (Applied Biosystems, Carlsbad, Calif.) following the manufacturer's protocol. […] Total RNA was extracted, and 5 ng of each sample were reverse-transcribed in a method described by Li, et al., Cancer Res., Vol. 69, pages 6704-6712 (2009). Real-time RT-PCR reactions were then carried out in a total volume of 25 μl reaction mixture, as described by Li, et al., id., using Smart Cycler II (Cepheid, Sunnyvale, Calif.). The data were analyzed using Ct method and were normalized by RNU6B expression in each sample.

[6] = system: NF-κB DNA binding activity; experiment: EMSA for NF-κB DNA binding activity, three PC lines; assay type: cell-based, human; settings: 72 h; CDF/CUR 1 or 4 μMol/L, GEM 10 nMol/L
Experimental: The DNA binding activity of the nuclear transcription factor, NF-κB was assessed in the BxPC-3, MIAPaCa-E, and MIAPaCa-M cell lines by EMSA. […] The cells were lysed in 400 μl of lysis buffer and the reaction was set up as described earlier in Ali, et al., id. The gel was scanned using an Odyssey Infrared Imaging System, (LI-COR, Inc., Lincoln, Nebr.). Equal protein loading was ensured by immunoblotting 10 μg of nuclear protein and probing with anti-retinoblastoma antibody.

[7] = system: VEGF; experiment: AlphaLISA VEGF secretion; assay type: cell-based, human; settings: 72 h; MIAPaCa-E and MIAPaCa-M
Text: The effect of CDF on another downstream transcriptional target of NF-κβ, vascular endothelial growth factor (VEGF) secretion, was studied in the three human pancreatic cell lines.

[8] = system: pancreatosphere-derived tumor cells; experiment: Pancreatosphere formation by pancreatosphere-derived tumor cells; assay type: cell-based; settings: cells harvested from pancreatosphere-derived tumors
Text: Pancreatospheres (5,000) derived from MIAPaCa-2 cells were isolated and implanted in mice with 1:1 matrigel. […] RNA was extracted from the tumor tissue and assayed.
The animal was euthanized after 30 days because of tumor burden and photographed.

[9] = system: 5-FU+Ox-resistant cancer cells; settings: alone or with 5-FU+Ox or FOLFOX; cited from earlier work
[10] = system: rabbit 20S proteasome; experiment: Chymotrypsin-like activity of purified 20S proteasome (Suc-LLVY-AMC); assay type: biochemical
Text: Purified rabbit 20S proteasome and a fluorogenic substrate Suc-LLVY-AMC for the proteasomal chymotrypsin-like activity were obtained from Calbiochem Inc. (San Diego, Calif.).

[11] = system: NF-κB DNA binding activity; experiment: EMSA for NF-κB DNA binding activity, MIA PaCa-2; assay type: cell-based, human; settings: CUR 4 μM, CDF 2 μM
[12] = oral 1 g/kg body wt., mouse; cited from earlier work
[13] = female, ICR-SCID, mouse, po, serum, 250 mg/kg single intragastric
[14] = serum, 250 mg/kg single intragastric
[15] = serum, as printed in text 'at 1 h'

AUC(0-t) [3, 13]: 1220 ng·h/mL
Cmax [3, 13]: 210 ng/mL
Tmax [3, 13]: 8 h
increase in systemic drug level over Curcumin ([3]; serum AUClast, oral 250 mg/kg): 2.7 fold
Clast [3, 14]: 40 ng/mL
Tlast [3, 14]: 16.0 h
AUClast [3, 15]: 1220 ng·h/mL
SMILES: COc1cc(/C=C/C(=O)C(=Cc2ccc(F)c(F)c2)C(=O)/C=C/c2ccc(O)c(OC)c2)ccc1O [CDF, (1E,6E)-1,7-bis(4-hydroxy-3-methoxyphenyl)hepta-1,6-diene{4(3,4 difluorobenzaldehyde)}-3,5-dione]
inhibition at 10 µM ([1]; HCT-116, 10 μM, 24 h): 24%
inhibition at 20 µM ([1]; HCT-116, 20 μM, 24 h): 39%
inhibition at 30 µM ([1]; HCT-116, 30 μM, 24 h): 68%
cell growth inhibition [2]: superior to CUR in inducing cell growth inhibition
cell viability [4]: significant reduction in cell viability
expression of miR-21 [5]: significant reduction in the expression of miR-21
NF-κβ DNA binding activity [6]: significant inhibition in the DNA binding activity of NF-κβ in all three cell lines
secreted levels of VEGF [7]: significant inhibition of secreted levels of VEGF
formation of new pancreatospheres [8]: significant inhibition in the formation of new pancreatospheres
reducing and/or reversing chemoresistant colon cancer cells [9]: superior to naturally-occurring CUR

SMILES: COc1cc(/C=C/C(=O)CC(=O)/C=C/c2ccc(O)c(OC)c2)ccc1O [CUR, (1E,6E)-1,7-bis(4-hydroxy-3-methoxyphenyl)hepta-1,6-diene-3,5-dione, reference compound]
proteasome inhibition ([10]; 10 μM): 70%
inhibition of chymotrypsin-like activity of the proteasome ([10]; 1-10 μM, 2 h 37° C.): 20-70%
inhibition at 10 µM ([1]; HCT-116, 24 h): 24%
inhibition at 20 µM ([1]; HCT-116, 24 h): 53%
inhibition at 30 µM ([1]; HCT-116, 24 h): 49%
NF-κB DNA binding activity [11]: down-regulation of NF-κB
AUClast [3, 14]: 440 ng·h/mL
Clast [3, 14]: 30 ng/mL
Tlast ([3]; serum, 250 mg/kg single intragastric, 250 mg/kg): 8 h
Tlast ([3]; serum, 250 mg/kg single intragastric, listed as Curcumin, 250 mg/kg): 8.0 h
AUClast [3, 15]: 0.44 µg/mL
NF-κβ DNA binding activity [6]: much lower effects on NF-κβ DNA binding activity than the CDF-treated cells
Cmax [12]: 220 ng/mL
